Test results as given in ChEMBL document CHEMBL1201861, “Genomics of Drug Sensitity in Cancer screening data, Wellcome Trust Sanger Institute”.

How the values were obtained:
Assay in all cases: cells
TGBC11TKB = type: functional, cell-based; conditions: Homo sapiens;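 note: growth inhibition of human TGBC11TKB cells, measured by a cell viability assay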
Description: SANGER: Inhibition of human TGBC11TKB cell growth in a cell viability assay.

LoVo = type: functional, cell-based; conditions: Homo sapiens;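 note: growth inhibition of human LoVo cells, read out with a cell viability assay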
Description: SANGER: Inhibition of human LoVo cell growth in a cell viability assay.

RH-18 = type: functional, cell-based; conditions: Homo sapiens, Rh18;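 note: growth inhibition of human RH-18 cells, read out with a cell viability assay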
Description: SANGER: Inhibition of human RH-18 cell growth in a cell viability assay.

RERF-LC-MS = type: functional, cell-based; conditions: Homo sapiens;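 note: growth inhibition of human RERF-LC-MS cells, read out by a cell viability assay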
Description: SANGER: Inhibition of human RERF-LC-MS cell growth in a cell viability assay.

EPLC-272H = type: functional, cell-based; conditions: Homo sapiens
Description: SANGER: Inhibition of human EPLC-272H cell growth in a cell viability assay.

MKN-45 = type: functional, cell-based; conditions: Homo sapiens;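 note: growth inhibition of human MKN-45 cells, measured with a cell viability assay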
Description: SANGER: Inhibition of human MKN45 cell growth in a cell viability assay.

BHY = type: functional, cell-based; conditions: Homo sapiens;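 note: cell growth inhibition read out by a viability assay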
Description: SANGER: Inhibition of human BHY cell growth in a cell viability assay.

LU-135 = type: functional, cell-based; conditions: Homo sapiens
Description: SANGER: Inhibition of human LU-135 cell growth in a cell viability assay.

SNU-387 = type: functional, cell-based; conditions: Homo sapiens
Description: SANGER: Inhibition of human SNU-387 cell growth in a cell viability assay.

C3A = type: functional, cell-based; conditions: Homo sapiens;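 note: growth inhibition of C3A human cells, quantified with a cell viability readout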
Description: SANGER: Inhibition of human C3A cell growth in a cell viability assay.

NCI-H28 = type: functional, cell-based; conditions: Homo sapiens;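 note: growth inhibition of human NCI-H28 cells, read out as cell viability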
Description: SANGER: Inhibition of human NCI-H28 cell growth in a cell viability assay.

NCI-H1563 = type: functional, cell-based; conditions: Homo sapiens;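 note: growth inhibition of human NCI-H1563 cells, read out with a cell viability assay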
Description: SANGER: Inhibition of human NCI-H1563 cell growth in a cell viability assay.

SK-HEP1 = type: functional, cell-based, SK-HEP-1; conditions: Homo sapiens;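 note: cell viability readout used to quantify reduction in proliferation of human SK-HEP-1 cells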
Description: SANGER: Inhibition of human SK-HEP-1 cell growth in a cell viability assay.

HN = type: functional, cell-based; conditions: Homo sapiens
Description: SANGER: Inhibition of human HN cell growth in a cell viability assay.

OC-314 = type: functional, cell-based; conditions: Homo sapiens
Description: SANGER: Inhibition of human OC-314 cell growth in a cell viability assay.

CFPAC-1 = type: functional, cell-based; conditions: Homo sapiens;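 note: cell viability readout used to gauge suppression of CFPAC-1 cell proliferation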
Description: SANGER: Inhibition of human CFPAC-1 cell growth in a cell viability assay.

KP-4 = type: functional, cell-based; conditions: Homo sapiens;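 note: human KP-4 cells, with growth inhibition read out through a cell viability assay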
Description: SANGER: Inhibition of human KP-4 cell growth in a cell viability assay.

D-423MG = type: functional, cell-based; conditions: Homo sapiens
Description: SANGER: Inhibition of human D-423MG cell growth in a cell viability assay.

EGI-1 = type: functional, cell-based; conditions: Homo sapiens;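 note: cell viability readout used to gauge growth inhibition of EGI-1 cells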
Description: SANGER: Inhibition of human EGI-1 cell growth in a cell viability assay.

GCT = type: functional, cell-based; conditions: Homo sapiens;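 note: GCT cell line proliferation inhibition, read out with a cell viability assay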
Description: SANGER: Inhibition of human GCT cell growth in a cell viability assay.

OE19 = type: functional, cell-based; conditions: Homo sapiens;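 note: growth inhibition of OE19 cells, measured through a cell viability read-out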
Description: SANGER: Inhibition of human OE19 cell growth in a cell viability assay.

HCC70 = type: functional, cell-based; conditions: Homo sapiens;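 note: cell viability assay measuring how strongly the compound suppresses proliferation of HCC70 cells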
Description: SANGER: Inhibition of human HCC70 cell growth in a cell viability assay.

NCI-H1666 = type: functional, cell-based; conditions: Homo sapiens;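 note: growth inhibition of the cell line, read out with a cell viability assay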
Description: SANGER: Inhibition of human NCI-H1666 cell growth in a cell viability assay.

M059J = type: functional, cell-based; conditions: Homo sapiens;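 note: growth inhibition of M059J cells, read out with a cell viability assay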
Description: SANGER: Inhibition of human M059J cell growth in a cell viability assay.

T84 = type: functional, cell-based; conditions: Homo sapiens;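 note: growth inhibition measured with a cell viability readout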
Description: SANGER: Inhibition of human T84 cell growth in a cell viability assay.

NCI-H1623 = type: functional, cell-based; conditions: Homo sapiens;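 note: cell viability assay used as the read-out for growth inhibition of NCI-H1623 cells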
Description: SANGER: Inhibition of human NCI-H1623 cell growth in a cell viability assay.

CAMA-1 = type: functional, cell-based; conditions: Homo sapiens;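 note: growth inhibition of CAMA-1 cells, read out with a cell viability assay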
Description: SANGER: Inhibition of human CAMA-1 cell growth in a cell viability assay.

NB12 = type: functional, cell-based; conditions: Homo sapiens;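 note: growth inhibition of human NB12 cells, read out by a cell viability assay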
Description: SANGER: Inhibition of human NB12 cell growth in a cell viability assay.

NCI-H2342 = type: functional, cell-based; conditions: Homo sapiens;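 note: growth inhibition of the cancer cell line, determined with a cell viability assay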
Description: SANGER: Inhibition of human NCI-H2342 cell growth in a cell viability assay.

SNU-449 = type: functional, cell-based; conditions: Homo sapiens
Description: SANGER: Inhibition of human SNU-449 cell growth in a cell viability assay.

Capan-2 = type: functional, cell-based; conditions: Homo sapiens;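 note: Capan-2 cell growth inhibition, read out with a viability assay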
Description: SANGER: Inhibition of human Capan-2 cell growth in a cell viability assay.

U-251 = type: functional, cell-based; conditions: Homo sapiens;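 note: growth inhibition of human U-251 cells, read out through a cell viability assay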
Description: SANGER: Inhibition of human U251 cell growth in a cell viability assay.

H-EMC-SS = type: functional, cell-based; conditions: Homo sapiens
Description: SANGER: Inhibition of human H-EMC-SS cell growth in a cell viability assay.

SW1088 = type: functional, cell-based; conditions: Homo sapiens;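 note: growth inhibition of human SW1088 cells, read out by a cell viability assay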
Description: SANGER: Inhibition of human SW1088 cell growth in a cell viability assay.

KNS-62 = type: functional, cell-based; conditions: Homo sapiens;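 note: inhibition of cell growth, read out with a cell viability assay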
Description: SANGER: Inhibition of human KNS-62 cell growth in a cell viability assay.

YH-13 = type: functional, cell-based; conditions: Homo sapiens;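 note: cell viability readout of growth suppression in the human YH-13 cell line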
Description: SANGER: Inhibition of human YH-13 cell growth in a cell viability assay.

NCI-H2030 = type: functional, cell-based; conditions: Homo sapiens;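 note: growth inhibition of human NCI-H2030 cells, read out by a cell viability assay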
Description: SANGER: Inhibition of human NCI-H2030 cell growth in a cell viability assay.

CAL-27 = type: functional, cell-based; conditions: Homo sapiens;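 note: Viability-based readout, IC50 reflecting inhibition of CAL-27 cell growth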
Description: SANGER: Inhibition of human CAL-27 cell growth in a cell viability assay.

| SMILES | IC50 (TGBC11TKB) [µM] | IC50 (LoVo) [µM] | IC50 (RH-18) [µM] | IC50 (RERF-LC-MS) [µM] | IC50 (EPLC-272H) [µM] | IC50 (MKN-45) [µM] | IC50 (BHY) [µM] | IC50 (LU-135) [µM] | IC50 (SNU-387) [µM] | IC50 (C3A) [µM] | IC50 (NCI-H28) [µM] | IC50 (NCI-H1563) [µM] | IC50 (SK-HEP1) [µM] | IC50 (HN) [µM] | IC50 (OC-314) [µM] | IC50 (CFPAC-1) [µM] | IC50 (KP-4) [µM] | IC50 (D-423MG) [µM] | IC50 (EGI-1) [µM] | IC50 (GCT) [µM] | other results |
| --- | --- | --- | --- | --- | --- | --- | --- | --- | --- | --- | --- | --- | --- | --- | --- | --- | --- | --- | --- | --- | --- |
| O=C(NCCCNc1nc(Nc2cccc(NC(=O)N3CCCC3)c2)ncc1I)c1cccs1 [BX-795] | > 5 | > 5 | > 5 | > 5 | > 5 | > 5 | > 5 | > 5 | 3.81 | > 5 | 2.85 | > 5 | 2.97 | 2.12 | 3.05 | > 5 | > 5 | 1.61 | > 5 | > 5 | IC50 (OE19): > 5 µM; IC50 (HCC70): > 5 µM; IC50 (NCI-H1666): > 5 µM; IC50 (M059J): 1.38 µM; IC50 (T84): > 5 µM; IC50 (NCI-H1623): > 5 µM; IC50 (CAMA-1): > 5 µM; IC50 (NB12): > 5 µM; IC50 (NCI-H2342): > 5 µM; IC50 (SNU-449): 5 µM; IC50 (Capan-2): > 5 µM; IC50 (U-251): > 5 µM; IC50 (H-EMC-SS): > 5 µM; IC50 (SW1088): 2 µM; IC50 (KNS-62): > 5 µM; IC50 (YH-13): 0.629 µM; IC50 (NCI-H2030): > 5 µM; IC50 (CAL-27): > 5 µM |
| Cc1ccc(-n2nc(C(C)(C)C)cc2NC(=O)Nc2ccc(OCCN3CCOCC3)c3ccccc23)cc1 [DORAMAPIMOD] | > 10 | > 10 | > 10 | > 10 | > 10 | > 10 | > 10 | > 10 | > 10 | > 10 | > 10 | > 10 | > 10 | > 10 | > 10 | > 10 | > 10 | > 10 | > 10 | > 10 | IC50 (OE19): > 10 µM; IC50 (HCC70): > 10 µM; IC50 (NCI-H1666): > 10 µM; IC50 (M059J): > 10 µM; IC50 (T84): > 10 µM; IC50 (NCI-H1623): > 10 µM; IC50 (CAMA-1): > 10 µM; IC50 (NB12): > 10 µM; IC50 (NCI-H2342): > 10 µM; IC50 (SNU-449): > 10 µM; IC50 (Capan-2): > 10 µM; IC50 (U-251): > 10 µM; IC50 (H-EMC-SS): > 10 µM; IC50 (SW1088): > 10 µM; IC50 (KNS-62): > 10 µM; IC50 (YH-13): > 10 µM; IC50 (NCI-H2030): > 10 µM; IC50 (CAL-27): > 10 µM |
| CC1(C)CCC(c2ccc(Cl)cc2)=C(CN2CCN(c3ccc(C(=O)NS(=O)(=O)c4ccc(N[C@H](CCN5CCOCC5)CSc5ccccc5)c(S(=O)(=O)C(F)(F)F)c4)cc3)CC2)C1 [NAVITOCLAX] | > 2 | > 2 | 0.0605 | > 2 | > 2 | > 2 | > 2 | 0.186 | > 2 | > 2 | > 2 | > 2 | > 2 | > 2 | > 2 | > 2 | > 2 | > 2 | > 2 | > 2 | IC50 (OE19): > 2 µM; IC50 (HCC70): > 2 µM; IC50 (NCI-H1666): > 2 µM; IC50 (M059J): > 2 µM; IC50 (T84): > 2 µM; IC50 (NCI-H1623): > 2 µM; IC50 (CAMA-1): > 2 µM; IC50 (NB12): 0.231 µM; IC50 (NCI-H2342): 1.4 µM; IC50 (SNU-449): > 2 µM; IC50 (Capan-2): > 2 µM; IC50 (U-251): > 2 µM; IC50 (H-EMC-SS): > 2 µM; IC50 (SW1088): > 2 µM; IC50 (KNS-62): > 2 µM; IC50 (YH-13): > 2 µM; IC50 (NCI-H2030): > 2 µM; IC50 (CAL-27): > 2 µM |
| CC1=C(/C=C/C(C)=C/C=C/C(C)=C/C(=O)O)C(C)(C)CCC1 [TRETINOIN] | > 10 | > 10 | > 10 | > 10 | > 10 | > 10 | > 10 | > 10 | > 10 | > 10 | > 10 | > 10 | > 10 | > 10 | > 10 | > 10 | > 10 | > 10 | > 10 | > 10 | IC50 (OE19): > 10 µM; IC50 (HCC70): > 10 µM; IC50 (NCI-H1666): > 10 µM; IC50 (M059J): > 10 µM; IC50 (T84): > 10 µM; IC50 (NCI-H1623): > 10 µM; IC50 (CAMA-1): > 10 µM; IC50 (NB12): > 10 µM; IC50 (NCI-H2342): > 10 µM; IC50 (SNU-449): > 10 µM; IC50 (Capan-2): > 10 µM; IC50 (U-251): > 10 µM; IC50 (H-EMC-SS): > 10 µM; IC50 (SW1088): > 10 µM; IC50 (KNS-62): > 10 µM; IC50 (YH-13): > 10 µM; IC50 (NCI-H2030): > 10 µM; IC50 (CAL-27): > 10 µM |
| NC(=O)c1ccc(N(C(N)=O)c2c(F)cccc2F)nc1-c1ccc(F)cc1F [VX-702] | > 2 | > 2 | > 2 | > 2 | > 2 | > 2 | > 2 | > 2 | > 2 | > 2 | > 2 | > 2 | > 2 | > 2 | > 2 | > 2 | > 2 | > 2 | > 2 | > 2 | IC50 (OE19): > 2 µM; IC50 (HCC70): > 2 µM; IC50 (NCI-H1666): > 2 µM; IC50 (M059J): > 2 µM; IC50 (T84): > 2 µM; IC50 (NCI-H1623): > 2 µM; IC50 (CAMA-1): > 2 µM; IC50 (NB12): > 2 µM; IC50 (NCI-H2342): > 2 µM; IC50 (SNU-449): > 2 µM; IC50 (Capan-2): > 2 µM; IC50 (U-251): > 2 µM; IC50 (H-EMC-SS): > 2 µM; IC50 (SW1088): > 2 µM; IC50 (KNS-62): > 2 µM; IC50 (YH-13): > 2 µM; IC50 (NCI-H2030): > 2 µM; IC50 (CAL-27): > 2 µM |
